# Source: publication PMC3933301 (Journal of medicinal chemistry, 2013)
# “Also recorded” adds a separate entry of the source. Where two headings read alike, the source gives them in different places.
# Key:
# Mtb H37Rv [1] = assay: Microplate Alamar Blue Assay; format: cell-based, Mycobacterium tuberculosis
# Mtb [2] = details: cited from earlier work
# Mtb [3] = details: standard acute infection model, immune incompetent GKO mice; cited from earlier work
# Mtb H37Rv [4] = details: early leads of previous study, Figure 1; cited from earlier work
# non-replicating Mtb = details: grown under low oxygen conditions; cited from earlier work
# Mtb FtsZ [5] = target: T1, Mtb FtsZ (Mycobacterium tuberculosis, UniProt P9WN95); format: biochemical; details: for TEM: effect on GTP-initiated FtsZ polymerization: FtsZ 5 µM, GTP 25 µM
# Mtb FtsZ [6] = target: T1, Mtb FtsZ; assay: Mtb-FtsZ polymerization inhibitory assay; format: biochemical; details: FtsZ 15 µM, GTP 50 µM, 25 °C
# Cytotoxicity assay = format: cell-based; details: Cercopithecus aethiops (African green monkey)
# T1 sequence (P9WN95 whole entry): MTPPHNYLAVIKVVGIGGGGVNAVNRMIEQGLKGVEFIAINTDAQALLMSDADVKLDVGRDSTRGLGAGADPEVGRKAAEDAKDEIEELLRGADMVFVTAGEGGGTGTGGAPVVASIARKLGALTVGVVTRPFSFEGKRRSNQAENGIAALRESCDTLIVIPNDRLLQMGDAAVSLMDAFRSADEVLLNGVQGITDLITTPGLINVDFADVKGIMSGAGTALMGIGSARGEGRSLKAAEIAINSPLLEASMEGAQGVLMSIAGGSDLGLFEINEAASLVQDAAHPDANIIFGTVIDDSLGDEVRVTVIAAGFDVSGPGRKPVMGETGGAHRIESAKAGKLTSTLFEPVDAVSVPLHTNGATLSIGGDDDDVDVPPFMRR
smiles,measurement,setting,value
CCCCOC(=O)Nc1cc2nc(C3CCCCC3)[nH]c2cc1N(CC)CC [Compound 1],MIC,"Mtb H37Rv [1]; Mycobacterium tuberculosis, H37RV, read-out: Mtb H37Rv MIC",0.63 mg/L
same,Bactericidal activity,Mtb [2],bactericidal
same,Efficacy in vivo,Mtb [3],good efficacy
same,MIC of early lead compounds,Mtb H37Rv [4],0.63 mg/L
same,Activity against non-replicating Mtb,non-replicating Mtb,active
CCCCOC(=O)Nc1cc2nc(C3CCCCC3)[nH]c2cc1N1CCCC1 [Compound 2],Bactericidal activity,Mtb [2],bactericidal
same,Activity against non-replicating Mtb,non-replicating Mtb,active
"CCCCOC(=O)Nc1cc2nc(C3CCCCC3)[nH]c2cc1N(C)C [Compound 5f, 5-Butyloxycarbonylamino-2-cyclohexyl-6-N,N-dimethylamino-1H-benzo[d]imidazole]",Potency relative to 1 (Mtb H37Rv MIC),Mtb H37Rv [1],11 times
same,TEM: effect on preformed FtsZ polymers,Mtb FtsZ [5]; 5f 40 µM or 80 µM added after polymerization with GTP 25 µM,capable of disrupting the formed FtsZ polymers and aggregates; also recorded: effectively disassembled
same,TEM: effect on GTP-initiated FtsZ polymerization,Mtb FtsZ [5]; 5f 40 µM,"reduction in the density and population of FtsZ polymers, protofilaments and aggregates"
same,TEM: effect on GTP-initiated FtsZ polymerization,Mtb FtsZ [5]; 5f 80 µM,more apparent
same,Inhibition of Mtb FtsZ polymerization (light scattering),Mtb FtsZ [6],inhibit the assembly of Mtb FtsZ in a dose dependent manner; also recorded: effective dose-dependent inhibition
"CCN(CC)c1cc2[nH]c(C3CCCCC3)nc2cc1NC(=O)OCC(F)(F)F [Compound 5n, 2-Cyclohexyl-6-N,N-diethylamino-5-trifluoroethoxycarbonylamino-1H-benzo[d]imidazole]",IC50,Cytotoxicity assay,> 100 mg/L
"O=C(Nc1cc2nc(C3CCCCC3)[nH]c2cc1N1CCCC1)OCC(F)(F)F [Compound 5o, 2-Cyclohexyl-5-trifluoroethoxycarbonylamino-6-prrolidinyl-1H-benzo[d]imidazole]",IC50,Cytotoxicity assay,> 100 mg/L
"CN(C)c1cc2[nH]c(C3CCCCC3)nc2cc1NC(=O)OCC(F)(F)F [Compound 5p, 2-Cyclohexyl-5-trifluoroethoxycarbonylamino-6-N,N-dimethylamino-1H-benzo[d]imidazole]",Inhibition of Mtb FtsZ polymerization (light scattering),Mtb FtsZ [6],inhibit the assembly of Mtb FtsZ in a dose dependent manner; also recorded: effective dose-dependent inhibition
same,IC50,Cytotoxicity assay,> 100 mg/L
"CCc1ccc(C(=O)Nc2cc3nc(C4CCCCC4)[nH]c3cc2N(C)C)cc1 [Compound 7c-6, 2-Cyclohexyl-5-(4-ethylbenzamido)-6-N,N-dimethylamino-1H-benzo[d]imidazole]",Inhibition of Mtb FtsZ polymerization (light scattering),Mtb FtsZ [6],inhibit the assembly of Mtb FtsZ in a dose dependent manner; also recorded: effective dose-dependent inhibition
